One compound from publication PMC6148290, “Endogenous metabolites of vitamin E limit inflammation by targeting 5-lipoxygenase” (Nature Communications, 2018) can be followed below.

Data set [1] deals with T1, human recombinant soluble epoxide hydrolase (sEH) (Homo sapiens, UniProt P34913).
T1 construct: made in house; host or cells: Sf9 insect cells (recombinant baculovirus)
T1 sequence (P34913 1-555): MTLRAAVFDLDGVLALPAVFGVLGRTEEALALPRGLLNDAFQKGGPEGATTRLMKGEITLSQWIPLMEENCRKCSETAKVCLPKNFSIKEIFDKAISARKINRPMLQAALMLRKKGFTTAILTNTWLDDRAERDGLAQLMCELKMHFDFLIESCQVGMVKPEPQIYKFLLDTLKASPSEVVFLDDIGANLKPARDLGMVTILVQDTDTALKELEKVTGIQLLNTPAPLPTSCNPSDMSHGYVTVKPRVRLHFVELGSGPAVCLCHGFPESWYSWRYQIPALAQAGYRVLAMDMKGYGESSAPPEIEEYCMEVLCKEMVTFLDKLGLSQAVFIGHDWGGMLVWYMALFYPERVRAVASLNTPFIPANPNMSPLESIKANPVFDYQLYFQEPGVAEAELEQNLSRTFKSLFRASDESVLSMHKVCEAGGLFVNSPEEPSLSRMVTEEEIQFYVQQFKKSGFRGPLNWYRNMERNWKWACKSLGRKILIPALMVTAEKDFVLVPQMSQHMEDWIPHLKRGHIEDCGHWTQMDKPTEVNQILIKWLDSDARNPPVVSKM
Nature of the data set: sEH activity. The format is biochemical. On the procedure:
To investigate the effect of LCMs on sEH activity, we purified the human recombinant enzyme from sEH expressing Sf9 insect cells by benzylthio-sepharose affinity chromatography. […] The purified enzyme (60 ng) was diluted in 25 mM Tris HCl, pH 7 plus 0.1 mg/ml BSA and pre-incubated with LCMs for 10 min at room temperature. The enzymatic reaction was started by addition of PHOME (50 µM, Cayman Chemicals), which was converted to the fluorescent 6-methoxy-naphtaldehyde.

The nature of data set [2]: LCM concentrations in plasma and peritoneal exudate of mice with peritonitis (UPLC-MS/MS). The format is in vivo. To be noted: CD-1, mouse; for concentration at 240 min: ip, 10 mg/kg i.p., 240 min post zymosan. On the procedure: Mice were killed by inhalation of CO2 after another 30 min for determination of LTC4 levels and vascular permeability and after 4 h for the analysis of LTB4 levels, lipidomic profiles and immune cell infiltration. Cell infiltration and lipid mediator profiles during resolution were studied after 18 h. Peritoneal exudates were collected and cells counted after vital trypan blue staining. LTC4, LTB4, and PGE2 were analyzed in the exudate by enzyme immunoassays (Enzo Life Sciences, Lörrach, Germany) according to manufacturer's instructions. To assess vascular permeability, Evans blue dye (40 mg/kg in saline, 0.3 ml; Sigma-Aldrich) was injected into the tail vain immediately before the induction of peritonitis. Exudates were centrifuged (3000 × g, 5 min) and the absorbance of the supernatants was measured at 610 nm using a Beckman Coulter DU730 spectrophotometer. To investigate the effect of α-T (1a) on the accumulation of α-T-13'-COOH (4a) in infiltrated leukocytes after peritonitis has been established, vehicle or α-[…].) were given 1 h before and/or 4 h post zymosan injection, and mice were killed after another 1.5 h. Leukocytes were obtained from peritoneal exudates by centrifugation (1200 × g, 10 min, 4 °C). Lipids, including LCMs, were extracted from PMNL, murine peritoneal exudates or murine plasma by successive addition of PBS pH 7.4, methanol, chloroform and saline (final ratio: 14:34:35:17)[68]. […] Multiple reaction monitoring was used to detect LCMs in the negative ion mode. The precursor-to-product ion transitions were selected according to Jiang et al.[69] and are listed in Supplementary Table 3. The ion spray voltage was set to -4500 V, the heated capillary temperature to 450 °C, the sheath gas pressure to 50 psi, the auxiliary gas pressure to 40 psi, and the declustering potential to 80 eV (for Ts) or 110 eV (for TEs). Collision energies and lower limits of quantitation are listed in Supplementary Table 3.

The test system of the next data set is OVA-sensitized mice. Nature of the data set: Airway hyper-reactivity in OVA-sensitized mice. To be noted: 10 mg/kg i.p. at days 0 and 7; day 21. The format is in vivo, mouse. On the procedure: BALB/c mice were sensitized to OVA, and bronchial reactivity and pulmonary LTC4 levels were measured. On days 0 and 7, α-T-13′-COOH (4a; 10 mg/kg, i.p.) or vehicle (4% DMSO in saline; 0.5 ml) were administered 30 min before injection of OVA (100 µg; Sigma Aldrich) which was adsorbed to aluminum hydroxide gel (3.3 mg; Sigma Aldrich). Mice were sacrificed on day 21, and bronchi were collected. Bronchial rings of 1–2 mm length were cut and placed in organ baths mounted to isometric force transducers (Type 7006, AD Instruments, Ugo Basile, Comerio, Italy) and connected to a Powerlab 800 (AD Instruments). Rings were initially stretched until a resting tension of 0.5 g was reached and allowed to equilibrate for at least 30 min. In each experiment, bronchial rings were challenged with carbachol (10^−6 M) until the response was reproducible. Bronchial reactivity was then assessed from a cumulative concentration–response curve to carbachol (1 × 10^−8 − 3 × 10^−5 M). To determine pulmonary LTC4 levels, lungs were isolated and homogenized in PBS pH 7.4 (100 mg tissue/ml) prior to detection of LTC4 by enzyme immunoassay (Cayman Chemicals).

Where two headings read alike, the source gives them in different places. Some results are limits rather than exact numbers.

As to `Cc1c(C)c2c(c(C)c1O)CC[C@@](C)(CCCC(C)CCCC(C)CCCC(C)C(=O)O)O2` (stereo partly drawn) [4a, 13-((2R)-6-hydroxy-2,5,7,8-tetramethylchroman-2-yl)-2,6,10-trimethyltridecanoic acid], the IC50 in data set [1] was more than 10 µM. Also, the concentration at 30 min in data set [2] (peritoneal exudate, endogenous, 30 min post zymosan injection, read-out: α-T-13′-COOH (4a) concentration in peritoneal exudate) was not above 200 nM. The concentration at 240 min in data set [2] (peritoneal exudate, read-out: α-T-13′-COOH (4a) concentration in peritoneal exudate) stood at 3900 nM; in data set [2] (plasma, read-out: α-T-13′-COOH (4a) concentration in plasma), 1400 nM. For the same compound, the “OVA-induced bronchial hyper-reactivity to carbachol” value with OVA-sensitized mice is given as “significantly inhibited”. The “pulmonary LTC4 levels” value in the data set with OVA-sensitized mice is “lowered pulmonary LTC4 to basal levels”.
